Source: ChEMBL document CHEMBL6120977, “Structure-Affinity-Pharmacokinetics Relationships of Novel 18F-Labeled 1,4-Diazepane Derivatives for Orexin 1 Receptor Imaging” (J Med Chem, 2024)
Values belong to the compound of their own block, whether it stands above or below them.

Key:
[1] = Biodistribution in male ddY mouse liver administered intravenously and measured at 30 mins postinjection by gamma counter analysis; assay type: ADME, organism-based; conditions: in vivo, iv, 0.5 h
[2] = Drug uptake in male ddY mouse locus ceruleus at 407 kBq, iv measured for 5 to 10 mins by PET/CT imaging analysis; assay type: ADME, organism-based; conditions: in vivo, time 5-10 min
[3] = Biodistribution in male ddY mouse liver administered intravenously and measured at 60 mins postinjection by gamma counter analysis; assay type: ADME, organism-based; conditions: in vivo, iv, 1 h
[4] = Biodistribution in male ddY mouse blood administered intravenously and measured at 30 mins postinjection by gamma counter analysis; assay type: ADME, organism-based; conditions: in vivo, iv, 0.5 h
[5] = Biodistribution in male ddY mouse bone administered intravenously and measured at 30 mins postinjection by gamma counter analysis; assay type: ADME, organism-based, Bone element; conditions: in vivo, iv, 0.5 h
[6] = Biodistribution in male ddY mouse heart administered intravenously and measured at 2 mins postinjection by gamma counter analysis; assay type: ADME, organism-based; conditions: in vivo, iv
[7] = Biodistribution in male ddY mouse brain administered intravenously and measured at 60 mins postinjection by gamma counter analysis; assay type: ADME, organism-based; conditions: in vivo, iv, 1 h
[8] = Biodistribution in male ddY mouse intestine administered intravenously and measured at 60 mins postinjection by gamma counter analysis; assay type: ADME, organism-based; conditions: in vivo, iv, 1 h
[9] = Biodistribution in male ddY mouse liver administered intravenously and measured at 2 mins postinjection by gamma counter analysis; assay type: ADME, organism-based; conditions: in vivo, iv
[10] = Biodistribution in male ddY mouse pancreas administered intravenously and measured at 2 mins postinjection by gamma counter analysis; assay type: ADME, organism-based; conditions: in vivo, iv
[11] = Biodistribution in male ddY mouse lung administered intravenously and measured at 2 mins postinjection by gamma counter analysis; assay type: ADME, organism-based; conditions: in vivo, iv
[12] = Biodistribution in male ddY mouse spleen administered intravenously and measured at 30 mins postinjection by gamma counter analysis; assay type: ADME, organism-based; conditions: in vivo, iv, 0.5 h
[13] = Biodistribution in male ddY mouse heart administered intravenously and measured at 30 mins postinjection by gamma counter analysis; assay type: ADME, organism-based; conditions: in vivo, iv, 0.5 h
[14] = Biodistribution in male ddY mouse brain administered intravenously and measured at 10 mins postinjection by gamma counter analysis; assay type: ADME, organism-based; conditions: in vivo, iv
[15] = Biodistribution in male ddY mouse stomach administered intravenously and measured per organ at 30 mins postinjection by gamma counter analysis; assay type: ADME, organism-based; conditions: in vivo, iv, 0.5 h
[16] = Biodistribution in male ddY mouse stomach administered intravenously and measured per organ at 10 mins postinjection by gamma counter analysis; assay type: ADME, organism-based; conditions: in vivo, iv
[17] = Biodistribution in male ddY mouse heart administered intravenously and measured at 60 mins postinjection by gamma counter analysis; assay type: ADME, organism-based; conditions: in vivo, iv, 1 h
[18] = Biodistribution in male ddY mouse pancreas administered intravenously and measured at 10 mins postinjection by gamma counter analysis; assay type: ADME, organism-based; conditions: in vivo, iv
[19] = Biodistribution in male ddY mouse intestine administered intravenously and measured at 10 mins postinjection by gamma counter analysis; assay type: ADME, organism-based; conditions: in vivo, iv
[20] = Biodistribution in male ddY mouse kidney administered intravenously and measured at 30 mins postinjection by gamma counter analysis; assay type: ADME, organism-based; conditions: in vivo, iv, 0.5 h
[21] = Biodistribution in male ddY mouse bone administered intravenously and measured at 10 mins postinjection by gamma counter analysis; assay type: ADME, organism-based, Bone element; conditions: in vivo, iv
[22] = Biodistribution in male ddY mouse lung administered intravenously and measured at 30 mins postinjection by gamma counter analysis; assay type: ADME, organism-based; conditions: in vivo, iv, 0.5 h
[23] = Biodistribution in male ddY mouse liver administered intravenously and measured at 10 mins postinjection by gamma counter analysis; assay type: ADME, organism-based; conditions: in vivo, iv
[24] = Biodistribution in male ddY mouse spleen administered intravenously and measured at 2 mins postinjection by gamma counter analysis; assay type: ADME, organism-based; conditions: in vivo, iv
[25] = Biodistribution in male ddY mouse blood administered intravenously and measured at 2 mins postinjection by gamma counter analysis; assay type: ADME, organism-based; conditions: in vivo, iv
[26] = Biodistribution in male ddY mouse intestine administered intravenously and measured at 30 mins postinjection by gamma counter analysis; assay type: ADME, organism-based; conditions: in vivo, iv, 0.5 h
[27] = Biodistribution in male ddY mouse kidney administered intravenously and measured at 10 mins postinjection by gamma counter analysis; assay type: ADME, organism-based; conditions: in vivo, iv
[28] = Biodistribution in male ddY mouse brain administered intravenously and measured at 30 mins postinjection by gamma counter analysis; assay type: ADME, organism-based; conditions: in vivo, iv, 0.5 h
[29] = Biodistribution in male ddY mouse stomach administered intravenously and measured per organ at 2 mins postinjection by gamma counter analysis; assay type: ADME, organism-based; conditions: in vivo, iv
[30] = Biodistribution in male ddY mouse pancreas administered intravenously and measured at 60 mins postinjection by gamma counter analysis; assay type: ADME, organism-based; conditions: in vivo, iv, 1 h
[31] = Biodistribution in male ddY mouse bone administered intravenously and measured at 2 mins postinjection by gamma counter analysis; assay type: ADME, organism-based, Bone element; conditions: in vivo, iv
[32] = Biodistribution in male ddY mouse pancreas administered intravenously and measured at 30 mins postinjection by gamma counter analysis; assay type: ADME, organism-based; conditions: in vivo, iv, 0.5 h
[33] = Biodistribution in male ddY mouse heart administered intravenously and measured at 10 mins postinjection by gamma counter analysis; assay type: ADME, organism-based; conditions: in vivo, iv
[34] = Biodistribution in male ddY mouse kidney administered intravenously and measured at 60 mins postinjection by gamma counter analysis; assay type: ADME, organism-based; conditions: in vivo, iv, 1 h
[35] = Biodistribution in male ddY mouse intestine administered intravenously and measured at 2 mins postinjection by gamma counter analysis; assay type: ADME, organism-based; conditions: in vivo, iv
[36] = Biodistribution in male ddY mouse lung administered intravenously and measured at 60 mins postinjection by gamma counter analysis; assay type: ADME, organism-based; conditions: in vivo, iv, 1 h
[37] = Drug accumulation in male CD Sprague-Dawley rat amygdala assessed as increase in radioactivity at 40.1 kBq/ml incubated for 1 hrs in presence of BTF by autoradiography analysis; assay type: ADME, tissue-based
[38] = Biodistribution in male ddY mouse brain administered intravenously and measured at 2 mins postinjection by gamma counter analysis; assay type: ADME, organism-based; conditions: in vivo, iv
[39] = Biodistribution in male ddY mouse blood administered intravenously and measured at 60 mins postinjection by gamma counter analysis; assay type: ADME, organism-based; conditions: in vivo, iv, 1 h
[40] = Biodistribution in male ddY mouse spleen administered intravenously and measured at 60 mins postinjection by gamma counter analysis; assay type: ADME, organism-based; conditions: in vivo, iv, 1 h
[41] = Drug accumulation in male CD Sprague-Dawley rat cortex assessed as increase in radioactivity at 40.1 kBq/ml incubated for 1 hrs in presence of BTF by autoradiography analysis; assay type: ADME, tissue-based
[42] = Biodistribution in male ddY mouse stomach administered intravenously and measured per organ at 60 mins postinjection by gamma counter analysis; assay type: ADME, organism-based; conditions: in vivo, iv, 1 h
[43] = Biodistribution in male ddY mouse spleen administered intravenously and measured at 10 mins postinjection by gamma counter analysis; assay type: ADME, organism-based; conditions: in vivo, iv
[44] = Biodistribution in male ddY mouse lung administered intravenously and measured at 10 mins postinjection by gamma counter analysis; assay type: ADME, organism-based; conditions: in vivo, iv
[45] = Biodistribution in male ddY mouse kidney administered intravenously and measured at 2 mins postinjection by gamma counter analysis; assay type: ADME, organism-based; conditions: in vivo, iv
[46] = Drug uptake in male ddY mouse brain at 41 kBq, iv pretreated with BTF for 10 mins followed by compound administration and measured after 10 mins by gamma counter analysis; assay type: ADME, organism-based; conditions: in vivo
[47] = Biodistribution in male ddY mouse blood administered intravenously and measured at 10 mins postinjection by gamma counter analysis; assay type: ADME, organism-based; conditions: in vivo, iv
[48] = Drug accumulation in male CD Sprague-Dawley rat hypothalamus assessed as increase in radioactivity at 40.1 kBq/ml incubated for 1 hrs in presence of BTF by autoradiography analysis; assay type: ADME, tissue-based
[49] = Biodistribution in male ddY mouse bone administered intravenously and measured at 60 mins postinjection by gamma counter analysis; assay type: ADME, organism-based, Bone element; conditions: in vivo, iv, 1 h
[50] = Drug uptake in male ddY mouse hypothalamus at 407 kBq, iv measured for 5 to 10 mins by PET/CT imaging analysis; assay type: ADME, organism-based; conditions: in vivo, time 5-10 min
Homo sapiens = species: Homo sapiens; test: Selectivity ratio of IC50 for recombinant human OX2R extracted from HEK293T cell membrane to IC50 for recombinant human OX1R extracted from HEK293T cell membrane
Orexin receptor type 2 = biological target: T1, Orexin receptor type 2 (Homo sapiens, UniProt O43614); test: Displacement of [3H]EMPA from recombinant human OX2R extracted from HEK293T membrane by radioligand binding assay; assay type: cell membranes
T1 sequence (O43614 whole entry): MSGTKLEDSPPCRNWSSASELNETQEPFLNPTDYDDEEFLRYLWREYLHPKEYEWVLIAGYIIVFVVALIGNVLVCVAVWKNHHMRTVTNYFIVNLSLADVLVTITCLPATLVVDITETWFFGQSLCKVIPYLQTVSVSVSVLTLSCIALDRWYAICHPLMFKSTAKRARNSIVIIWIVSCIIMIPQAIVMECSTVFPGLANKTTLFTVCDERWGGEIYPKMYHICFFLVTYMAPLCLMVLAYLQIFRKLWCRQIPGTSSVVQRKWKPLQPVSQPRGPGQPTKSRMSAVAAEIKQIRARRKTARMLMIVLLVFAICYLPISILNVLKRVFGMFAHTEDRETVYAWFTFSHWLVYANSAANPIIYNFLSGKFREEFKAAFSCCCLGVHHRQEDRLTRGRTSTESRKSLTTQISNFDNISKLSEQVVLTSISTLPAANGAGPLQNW

[51] = biological target: T2, Orexin/Hypocretin receptor type 1 (Homo sapiens, UniProt O43613); test: Displacement of [3H]SB-674042 from recombinant human OX1R extracted from HEK293T membrane by radioligand binding assay; assay type: cell membranes
T2 sequence (O43613 whole entry): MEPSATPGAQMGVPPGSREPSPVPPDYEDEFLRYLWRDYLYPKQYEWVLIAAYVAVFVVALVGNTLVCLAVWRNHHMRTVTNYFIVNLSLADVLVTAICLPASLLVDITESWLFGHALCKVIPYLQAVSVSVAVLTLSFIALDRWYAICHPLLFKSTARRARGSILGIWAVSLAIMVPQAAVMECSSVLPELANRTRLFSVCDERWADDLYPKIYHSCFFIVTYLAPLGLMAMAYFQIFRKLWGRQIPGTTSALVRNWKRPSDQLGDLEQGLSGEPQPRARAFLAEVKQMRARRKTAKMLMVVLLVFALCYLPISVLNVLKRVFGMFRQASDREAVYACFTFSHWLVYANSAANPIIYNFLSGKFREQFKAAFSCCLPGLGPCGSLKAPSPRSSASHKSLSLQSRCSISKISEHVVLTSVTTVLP

- Drug uptake [1]: 17 % ID/g
- Drug uptake [2]: Active
- Drug uptake [3]: 10.8 % ID/g
- Drug uptake [4]: 1.74 % ID/g
- Drug uptake [5]: 1.77 % ID/g
- Drug uptake [6]: 7.48 % ID/g
- Drug uptake [7]: 0.07 % ID/g
- Drug uptake [8]: 34.5 % ID/g
- Drug uptake [9]: 16.2 % ID/g
- Drug uptake [10]: 7.16 % ID/g
- Drug uptake [11]: 8.48 % ID/g
- Drug uptake [12]: 0.66 % ID/g
- Drug uptake [13]: 1.51 % ID/g
- Drug uptake [14]: 0.82 % ID/g
- Drug uptake [15]: 2.39 %ID
- Drug uptake [16]: 2.16 %ID
- Drug uptake [17]: 0.54 % ID/g
- Drug uptake [18]: 3.1 % ID/g
- Drug uptake [19]: 15.7 % ID/g
- Drug uptake [20]: 3.99 % ID/g
- Drug uptake [21]: 1.4 % ID/g
- Drug uptake [22]: 2.2 % ID/g
- Drug uptake [23]: 28.6 % ID/g
- Drug uptake [24]: 3.26 % ID/g
- Drug uptake [25]: 6.02 % ID/g
- Drug uptake [26]: 28 % ID/g
- Drug uptake [27]: 4.99 % ID/g
- Drug uptake [28]: 0.17 % ID/g
- Drug uptake [29]: 1.4 %ID
- Drug uptake [30]: 0.61 % ID/g
- Drug uptake [31]: 2.69 % ID/g
- Drug uptake [32]: 0.92 % ID/g
- Drug uptake [33]: 3.02 % ID/g
- Drug uptake [34]: 1.84 % ID/g
- Drug uptake [35]: 4.74 % ID/g
- Drug uptake [36]: 1.17 % ID/g
- Drug uptake [37]: Not_active
- Drug uptake [38]: 2.98 % ID/g
- Drug uptake [39]: 0.64 % ID/g
- Drug uptake [40]: 0.29 % ID/g
- Drug uptake [41]: Not_active
- Drug uptake [42]: 1.05 %ID
- Drug uptake [43]: 1.87 % ID/g
- Drug uptake [44]: 4.13 % ID/g
- Drug uptake [45]: 9.76 % ID/g
- Drug uptake [46]: Not_active
- Drug uptake [47]: 3.2 % ID/g
- Drug uptake [48]: Not_active
- Drug uptake [49]: 1.87 % ID/g
- Drug uptake [50]: Active
SMILES: C[C@H]1CN(c2nc3ccccc3s2)CCCN1C(=O)c1cc([18F])ccc1-n1nccn1

- Ratio IC50 (Homo sapiens): 75
- IC50 (Orexin receptor type 2): 54 nM
- IC50 [51]: 0.72 nM
SMILES: CC[C@H](C)[C@H]1CN(c2nc3cc(Cl)ccc3o2)CCCN1C(=O)c1cc(C)ccc1-n1nccn1
